Laboratory results taken from patent US9850247B2 (Almac Discovery Limited, priority 2013, dated 2017).
pIC50: −log10 of the molar value. One block for each molecule: values may come before it.

Legend:
[1] = molecular target: T1, Wee-1 kinase (Homo sapiens, UniProt P30291); test: Measurement of Wee-1 kinase activity (ADP-Glo luminescent kit); assay type: biochemical
T1 construct: purchased Invitrogen PV3817
Summary of the method: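 ADP-Glo luminescence reads ADP made over 1 h at RT, after an aliquot of 30 μM ATP and 2.0 μg/mL poly(Lys,Tyr 4:1) substrate. Before that, the kinase sat 30 min with inhibitor in Tris-HCl/MgCl2 buffer with BSA and DTT. IC50 came from regression of percent inhibition.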

[2] = CLint estimates using human liver microsomes (Method 4); assay type: in vitro ADME; settings: pH 7.4, 1 μM compound, read-out: Mics - CLint (HLM CLint)
Protocol: Method 4: Determination of CLint Estimates Using Human liver microsomes Test compounds (final concentration=1 μM; final DMSO concentration=0.1%) were incubated in 0.1 M phosphate buffer pH 7.4 with human liver microsomes (0.5 mg of protein/mL) at 37° C. Reactions were started by addition of NADPH in 0.1 M phosphate buffer pH 7.4 (final concentration 1 mM). 40 μL aliquots were removed at 2, 5, 10, 15, 20, 30, 40 and 50 min. Reactions were quenched in 80 μL of ice-cold methanol. Samples were subsequently frozen overnight then centrifuged at 3500 rpm for 20 min at 4° C. The supernatants were removed and transferred into analytical plates and analysed by LC/MS/MS. LC/MS/MS Method: All samples were analysed on a Waters Acquity I-Class coupled to a Waters Xevo TQD mass spectrometer. A Waters BEH C18 2.1×50 mm 1.7 μm column was used and mobile phases were water and methanol containing 0.1% formic acid as modifier. Analysis was by multiple reaction monitoring and conditions were optimised for each test compound. Data Analyses: From a plot of 1n peak area against time, the gradient of the line is determined. Subsequently, half-life and intrinsic clearance are calculated using the following equations. [formula] [formula] [formula] where V=Incubation volume (μL)/number of cells Method 5: Determination of Kinetic Solubility (in PBS Buffer)

T1 sequence (P30291 whole entry): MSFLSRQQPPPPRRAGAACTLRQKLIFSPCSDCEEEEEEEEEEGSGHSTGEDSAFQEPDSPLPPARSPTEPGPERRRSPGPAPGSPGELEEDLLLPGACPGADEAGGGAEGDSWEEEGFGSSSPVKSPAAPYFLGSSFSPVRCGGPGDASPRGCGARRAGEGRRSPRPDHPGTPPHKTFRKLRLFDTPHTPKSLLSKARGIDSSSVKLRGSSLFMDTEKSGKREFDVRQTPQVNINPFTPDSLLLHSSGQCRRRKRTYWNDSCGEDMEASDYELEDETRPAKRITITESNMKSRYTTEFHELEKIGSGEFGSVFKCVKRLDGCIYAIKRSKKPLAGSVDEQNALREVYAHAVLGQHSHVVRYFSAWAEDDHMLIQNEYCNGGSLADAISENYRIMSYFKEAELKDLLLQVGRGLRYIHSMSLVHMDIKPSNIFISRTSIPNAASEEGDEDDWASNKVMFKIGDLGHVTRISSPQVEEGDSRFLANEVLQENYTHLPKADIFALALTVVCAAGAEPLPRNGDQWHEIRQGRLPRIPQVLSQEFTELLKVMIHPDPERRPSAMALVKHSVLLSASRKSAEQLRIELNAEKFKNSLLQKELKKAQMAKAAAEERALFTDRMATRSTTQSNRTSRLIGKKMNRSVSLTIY

Structure (SMILES): CN1CN(c2c(Cl)cccc2Cl)C(=O)c2cnc(Nc3ccc(N4CCCCC4)c(CO)c3)nc21 [Example 131, 3-(2,6-dichlorophenyl)-7-((3-(hydroxymethyl)-4-(piperidin-1-yl)phenyl)amino)-1-methyl-2,3-dihydropyrimido[4,5-d]pyrimidin-4(1H)-one]
- pIC50 [1]: ≤ 7.00
- microsomal CLint at 1 μM [2]: ≥ 50 µL/min/mg

Structure (SMILES): COCCN1CCN(c2ccc(Nc3ncc4c(n3)N(C)CN(c3c(Cl)cccc3Cl)C4=O)cc2)CC1 [Example 120, 3-(2,6-dichlorophenyl)-7-((4-(4-(2-methoxyethyl)piperazin-1-yl)phenyl)amino)-1-methyl-2,3-dihydropyrimido[4,5-d]pyrimidin-4(1H)-one]
- pIC50 [1]: ≤ 7.00
- microsomal CLint at 1 μM [2]: 15 to 50 µL/min/mg

Structure (SMILES): CN1CN(c2c(Cl)cccc2Cl)C(=O)c2cnc(Nc3ccc(N4CCN(C5CC5)CC4)cc3)nc21 [Example 115, 7-((4-(4-cyclopropylpiperazin-1-yl)phenyl)amino)-3-(2,6-dichlorophenyl)-1-methyl-2,3-dihydropyrimido[4,5-d]pyrimidin-4(1H)-one]
- pIC50 [1]: ≤ 7.00
- microsomal CLint at 1 μM [2]: 15 to 50 µL/min/mg

Structure (SMILES): COCc1cc(Nc2ncc3c(n2)N(C)CN(c2c(Cl)cccc2Cl)C3=O)ccc1N1CCN(C)[C@H](C)C1 [Example 67, (R)-3-(2,6-dichlorophenyl)-7-((4-(3,4-dimethylpiperazin-1-yl)-3-(methoxymethyl)phenyl)amino)-1-methyl-2,3-dihydropyrimido[4,5-d]pyrimidin-4(1H)-one]
- pIC50 [1]: 7.00 to 8.00
- microsomal CLint at 1 μM [2]: ≤ 15 µL/min/mg

Structure (SMILES): CCN1CCN(c2ccc(Nc3ncc4c(n3)N(C)CN(c3ccccc3Cl)C4=O)cc2CO)CC1 [Example 113, 3-(2-chlorophenyl)-7-((4-(4-ethylpiperazin-1-yl)-3-(hydroxymethyl)phenyl)amino)-1-methyl-2,3-dihydropyrimido[4,5-d]pyrimidin-4(1H)-one]
- pIC50 [1]: 7.00 to 8.00
- microsomal CLint at 1 μM [2]: 15 to 50 µL/min/mg

Structure (SMILES): CN1CN(c2c(Cl)cccc2Cl)C(=O)c2cnc(Nc3ccc(N4CC5CNCC5C4)cc3)nc21 (stereo not drawn) [Example 36, 3-(2,6-dichlorophenyl)-7-((4-(hexahydropyrrolo [3,4-c]pyrrol-2(1H)-yl)phenyl)amino)-1-methyl-2,3-dihydropyrimido[4,5-d]pyrimidin-4(1H)-one]
- pIC50 [1]: 7.00 to 8.00
- microsomal CLint at 1 μM [2]: 15 to 50 µL/min/mg

Structure (SMILES): CN1CCC(Oc2ccc(Nc3ncc4c(n3)N(C)CN(c3c(Cl)cccc3Cl)C4=O)cc2)CC1 [Example 90, 3-(2,6-dichlorophenyl)-1-methyl-7-((4-((1-methylpiperidin-4-yl)oxy)phenyl)amino)-2,3-dihydropyrimido[4,5-d]pyrimidin-4(1H)-one]
- pIC50 [1]: 7.00 to 8.00
- microsomal CLint at 1 μM [2]: 15 to 50 µL/min/mg

Structure (SMILES): CN1CN(c2c(Cl)cccc2Cl)C(=O)c2cnc(Nc3ccc(C4CCNCC4)cc3)nc21 [Example 119, 3-(2,6-dichlorophenyl)-1-methyl-7-((4-(piperidin-4-yl)phenyl)amino)-2,3-dihydropyrimido[4,5-d]pyrimidin-4(1H)-one]
- pIC50 [1]: 7.00 to 8.00
- microsomal CLint at 1 μM [2]: ≤ 15 µL/min/mg

Next, values leading:

- pIC50 [1]: 7.00 to 8.00
- microsomal CLint at 1 μM [2]: 15 to 50 µL/min/mg
Structure (SMILES): CN1CN(c2c(Cl)cccc2Cl)C(=O)c2cnc(Nc3ccc(N4CCS(=O)(=O)CC4)cc3)nc21 [Example 42, 3-(2,6-dichlorophenyl)-7-((4-(1,1-dioxidothiomorpholino)phenyl)amino)-1-methyl-2,3-dihydropyrimido[4,5-d]pyrimidin-4(1H)-one]

- pIC50 [1]: 7.00 to 8.00
- microsomal CLint at 1 μM [2]: 15 to 50 µL/min/mg
Structure (SMILES): COC[C@@H]1CN(c2ccc(Nc3ncc4c(n3)N(C)CN(c3c(Cl)cccc3Cl)C4=O)cc2)CCN1C [Example 66, (S)-3-(2,6-dichlorophenyl)-7-((4-(3-(methoxymethyl)-4-methylpiperazin-1-yl)phenyl)amino)-1-methyl-2,3-dihydropyrimido[4,5-d]pyrimidin-4(1H)-one]

- pIC50 [1]: 7.00 to 8.00
- microsomal CLint at 1 μM [2]: ≤ 15 µL/min/mg
Structure (SMILES): Cc1cc(Nc2ncc3c(n2)N(C)CN(c2c(C)cccc2Cl)C3=O)ccc1N1C[C@@H]2C[C@H]1CN2 [Example 112, 7-((4-((1S,4S)-2,5-diazabicyclo[2.2.1]heptan-2-yl)-3-methylphenyl)amino)-3-(2-chloro-6-methylphenyl)-1-methyl-2,3-dihydropyrimido[4,5-d]pyrimidin-4(1H)-one]

- pIC50 [1]: 7.00 to 8.00
- microsomal CLint at 1 μM [2]: 15 to 50 µL/min/mg
Structure (SMILES): Cc1cc(Nc2ncc3c(n2)N(C)CN(c2c(Cl)cccc2Cl)C3=O)ccc1N1C[C@H]2C[C@@H]1CN2C [Example 121, 3-(2,6-dichlorophenyl)-1-methyl-7-((3-methyl-4-((1R,4R)-5-methyl-2,5-diazabicyclo[2.2.1]heptan-2-yl)phenyl)amino)-2,3-dihydropyrimido[4,5-d]pyrimidin-4(1H)-one]

- pIC50 [1]: ≥ 8.00
- microsomal CLint at 1 μM [2]: ≤ 15 µL/min/mg
Structure (SMILES): CC(=O)N1CCN(c2ccc(Nc3ncc4c(n3)N(C)CN(c3c(Cl)cccc3Cl)C4=O)cc2CN2CCCC2)CC1 [Example 138, 7-((4-(4-acetylpiperazin-1-yl)-3-(pyrrolidin-1-ylmethyl)phenyl)amino)-3-(2,6-dichlorophenyl)-1-methyl-2,3-dihydropyrimido[4,5-d]pyrimidin-4(1H)-one]

- pIC50 [1]: 7.00 to 8.00
- microsomal CLint at 1 μM [2]: 15 to 50 µL/min/mg
Structure (SMILES): COc1cc(Nc2ncc3c(n2)N(C)CN(c2c(Cl)cccc2Cl)C3=O)ccc1N1C[C@@H]2C[C@H]1CN2C [Example 84, 3-(2,6-dichlorophenyl)-7-((3-methoxy-4-((1S,4S)-5-methyl-2,5-diazabicyclo[2.2.1]heptan-2-yl)phenyl)amino)-1-methyl-2,3-dihydropyrimido[4,5-d]pyrimidin-4(1H)-one]

- pIC50 [1]: 7.00 to 8.00
- microsomal CLint at 1 μM [2]: ≤ 15 µL/min/mg
Structure (SMILES): C[C@@H]1CN(c2ccc(Nc3ncc4c(n3)N(C)CN(c3ccccc3Cl)C4=O)cc2)[C@@H](C)CN1 [Example 111, 3-(2-chlorophenyl)-7-((4-((2S,5R)-2,5-dimethylpiperazin-1-yl)phenyl)amino)-1-methyl-2,3-dihydropyrimido[4,5-d]pyrimidin-4(1H)-one]

- pIC50 [1]: 7.00 to 8.00
- microsomal CLint at 1 μM [2]: 15 to 50 µL/min/mg
Structure (SMILES): CN1CN(c2c(Cl)cccc2Cl)C(=O)c2cnc(Nc3ccc(C4(N)CCC4)cc3)nc21 [Example 37, 7-((4-(1-aminocyclobutyl)phenyl)amino)-3-(2,6-dichlorophenyl)-1-methyl-2,3-dihydropyrimido[4,5-d]pyrimidin-4(1H)-one]

- pIC50 [1]: ≥ 8.00
- microsomal CLint at 1 μM [2]: ≤ 15 µL/min/mg
Structure (SMILES): Cc1cc(Nc2ncc3c(n2)N(C)CN(c2c(Cl)cccc2Cl)C3=O)ccc1N1C[C@@H]2C[C@H]1CN2 [Example 75, 7-((4-((1S,4S)-2,5-diazabicyclo[2.2.1]heptan-2-yl)-3-methylphenyl)amino)-3-(2,6-dichlorophenyl)-1-methyl-2,3-dihydropyrimido[4,5-d]pyrimidin-4(1H)-one]

- pIC50 [1]: ≥ 8.00
- microsomal CLint at 1 μM [2]: ≤ 15 µL/min/mg
Structure (SMILES): COC[C@H]1CNCCN1c1ccc(Nc2ncc3c(n2)N(C)CN(c2c(Cl)cccc2Cl)C3=O)cc1 [Example 129, (R)-3-(2,6-dichlorophenyl)-7-((4-(2-(methoxymethyl)piperazin-1-yl)phenyl)amino)-1-methyl-2,3-dihydropyrimido[4,5-d]pyrimidin-4(1H)-one]
